Series [1] concerns human large cell lung carcinoma LXFL-529. Briefly: Tumor growth inhibition, s.c. LXFL-529 xenograft in nude mice. Type of series: in vivo, NMRI nu/nu mice. The following applies: Table 14; for Tumor volume mm^3 (d 14): day 14; for RTV T/C optimum [%]: optimum day in cell. From the text: Mouse strain: NMRI nu/nu, female Animals supplied by: Charles River, Germany Age of mice at implantation: 5-7 weeks
The tumor xenografts LXFL-529 (Fiebig H H, Berger D P, Dengler W A, Wallbrecher E, Winterhalter B R: Combined In Vitro/In Vivo Test Procedure with Human Tumor Xenografts for New Drug Development. Contrib. Oncol., Basel, Karger, 1992, Vol. 42, pp 321-351) used in this study were derived from surgical specimen from patients treated at the University Hospital in Freiburg, Germany, and directly implanted into nude mice. Prior to surgery, most of the patients had not received any chemotherapy.
Tumor fragments were obtained from xenografts in serial passage in nude mice. After removal from donor mice, tumors were cut into fragments (4-5 mm diameter) and placed in PBS until subcutaneous implantation. Recipient mice were anaesthetized by inhalation of isoflurane. A small incision was made in the back and one tumor fragment per animal was transplanted with tweezers. The mice were monitored daily.
At randomization, tumor-bearing animals were stratified according to tumor volume into treatment and vehicle (control) groups. Only animals carrying one tumor of appropriate size (approximately 50-250 mm^3) were considered for randomization. Mice were randomized when the required number of mice qualified for randomization. The day of randomization was designated as day 0, which was also the first day of dosing.
(§1) All test items were formulated in 0.9% NaCl solution and given as i.v. bolus injection despite everolimus, which was given per oral.
(§2) Measurement of tumor volume and body weight as well as calculations of relative tumor volumes were carries out analogue to the procedure described in 1.3.

For series [2], the system named is human pancreas carcinoma ASPC-1. Put plainly: Tumor growth inhibition, s.c. ASPC-1 xenograft in nude mice. Particulars: 60 mg/kg/inj. i.v. Type of series: in vivo, NMRI:nu/nu mice. The source says:
The human pancreas carcinoma ASPC-1 was used as s.c. xenotransplantation model in immunodeficient female NMRI:nu/nu mice.
The cells were obtained from ATCC and are cryo-preserved within the EPO tumor bank. They were thawed, expanded in vitro and transplanted as cell suspension subcutaneously (s.c.) in female NMRI:nu/nu mice. The tumor line ASPC-1 is used for testing new anticancer drugs or novel therapeutic strategies. It was therefore selected for this study.
For experimental use 10^7 tumor cells/mouse from the in vitro passage were transplanted s.c. into the flank of each of 10 mice/group at day 0.
(§3) At palpable tumor size (30-100 mm^3) treatment started. The application volume was 0.2 ml/20 g mouse body weight. The test compounds, the vehicle controls and the reference compounds were all given intravenously (i.v.).
(§4) Tumor growth inhibition was used as therapeutic parameter. Additionally, body weight change was determined as signs for toxicity (particularly, potential hematological or gastrointestinal side effects).
Tumor diameters were measured twice weekly with a caliper. Tumor volumes were calculated according to V=(length x (width)^2)/2. For calculation of the relative tumor volume (RTV) the tumor volumes at each measurement day were related to the day of first treatment. At each measurement day the median and mean tumor volumes per group and also the treated to control (T/C) values in percent were calculated (Tables 11-13).
Descriptive statistics were performed on the data of body weight and tumor volume. […] Statistical evaluation was performed with the U-test of Mann and Whitney with a significance level of p≦0.05, using the Windows program […] 6.
All Gemcitabine-conjugates were stored in a freeze-dried form at −20° C. until use. Solutions were prepared immediately before injection by solving the conjugates in saline solution by vortexing in combination with centrifugation until a clear solution of the necessary concentration of the drug was obtained.
Gemcitabine (Gemzar®, charge A4781790 200 mg) was obtained from Lilly Deutschland GmbH and was stored in the dark at −20° C. until use. The final solution of Gemzar® was prepared immediately before injection by mixing the appropriate volume of the original stock solution (200 mg) with saline (0.9%, infusion solution, Ch.-Nr 0205A231, B. Braun Melsungen AG, Germany).

Series [3] in a line: Toxicity in ASPC-1 tumor-bearing nude mice (body weight change, toxic death, blood counts). Type of series: in vivo, NMRI:nu/nu mice. The method, then: as §3, §4
Individual body weights of mice were determined twice weekly and mean body weight per group was related to the initial value in percent (body weight change, BWC).
On the day of necropsy mice were sacrificed by cervical dislocation and inspected for gross organ changes.

Series [4] in a line: Toxicity in LXFL-529 tumor-bearing nude mice (mortality, body weight change). The series is classed as in vivo. The following applies: Table 14; days 0, 3, 7, 10 (20 mg/kg); 5 mice; at day 13. Here is the method: All experiments were conducted according to the guidelines of the German Animal Welfare Act (Tierschutzgesetz). Animal health was examined prior to tumor implantation and randomization to ensure that only animals without any symptoms of disease were selected to enter testing procedures. During the experiments, animals were monitored daily regarding tumor burden, general condition, feed and water supply.
as §1, §2

Where [5] appears, read: days 0, 3 (10 mg/kg), 7, 10, 14 (15 mg/kg) p.o.
[6] abbreviates: Table 13, days 7, 14, 21, day 27.
[7] abbreviates: days 0, 3, 7, 10 (20 mg/kg) i.v.

Each structure is given as a SMILES string. Marks after values point to notes of the source that are not given here.

From US20130217871A1, “CONJUGATES COMPRISING HYDROXYALKYL STARCH AND A CYTOTOXIC AGENT AND PROCESS FOR THEIR PREPARATION” (priority 2010, published 2013) come the findings set out here.

Take `CO[C@H]1C[C@@H]2CC[C@@H](C)[C@@](O)(O2)C(=O)C(=O)N2CCCC[C@H]2C(=O)O[C@H]([C@H](C)C[C@@H]2CC[C@@H](OCCO)[C@H](OC)C2)CC(=O)[C@H](C)/C=C(\C)[C@@H](O)[C@@H](OC)C(=O)[C@H](C)C[C@H](C)/C=C/C=C/C=C/1C` [Everolimus]: in series [1] (setting [5]), the “Tumor volume mm^3 (d 14)” value was 926.1 mm^3 and the “RTV T/C optimum [%]” value is given as 53.9 (d 14) %.
For `Nc1ccn([C@@H]2O[C@H](CO)[C@@H](O)C2(F)F)c(=O)n1` [Gemcitabine], the “RTV T/C (%) Optimum (at day)” value in series [2] (Table 11, 9 injections, optimum at day 36) was determined as 41.4%; in series [2] (Table 12, optimum at day 28), 23.6%. Besides, the “Tumor volume cm^3/d 44” value in series [2] (Table 11, days 9, 13, 16, 20, 23, 27, 30, 34, 40, day 44) is 0.272 +/− 0.119* cm^3. In addition, in series [2] (Table 12, day 28), the “Tumor volume cm^3/d 28” value was 0.159 +/− 0.058* cm^3. Besides, in series [2] (setting [6]), the “RTV T/C (%) d 27” value was 55.1%. In series [2] (setting [6]), the “Tumor volume cm^3/d 27” value is on record as 0.480 +/− 0.317 cm^3. Moreover, in series [3] (Table 11, 60 mg/kg/inj. i.v., day 13), the “Platelets × 10^6/ml (at day 13)” value was 915 +/− 105* × 10^6/ml. For the same molecule, the “WBC × 10^6/ml (at day 13)” value in series [3] (Table 11, white blood cell count, 60 mg/kg/inj. i.v., day 13) is reported as 5.22 +/− 1.47* × 10^6/ml. Also, in series [3] (Table 12, 60 mg/kg/inj. i.v., 8 treatments, 8 mice, deaths at d 15, d 18), the “Toxic death (at day)” value is listed as 2. In addition, the “BWC [%] (at day)” value in series [3] (Table 12, body weight change, 60 mg/kg/inj. i.v., at day 17) is recorded as −15%; in series [3] (mouse, in vivo, iv, 60 mg/kg) it was −2.4 (9) %.
Turning to `CO[C@H]1C[C@@H]2CC[C@@H](C)[C@@](O)(O2)C(=O)C(=O)N2CCCC[C@H]2C(=O)O[C@H]([C@H](C)C[C@@H]2CC[C@@H](OC(=O)C(C)(CO)CO)[C@H](OC)C2)CC(=O)[C@H](C)/C=C(\C)[C@@H](O)[C@@H](OC)C(=O)[C@H](C)C[C@H](C)/C=C/C=C/C=C/1C` [Temsirolimus], in series [1] (setting [7]), the “Tumor volume mm^3 (d 14)” value worked out at 1073.7 mm^3 and the “RTV T/C optimum [%]” value was 57.1 (d 10) %. Further, the “Mortality (at day)” value in series [4] is on record as 1 (13).
